# Laboratory results taken from paper PMC8275407 (BioMed Research International, 2021).
# Target: recombinant soluble dimeric mouse H-2D^b:Ig (DimerX) protein (Mus musculus, UniProt P01899)
# Assay: biochemical
# Assay type: binding
# recombinant soluble dimeric mouse H-2D^b:Ig (DimerX) protein, sequence (P01899 25-298 limits assumed): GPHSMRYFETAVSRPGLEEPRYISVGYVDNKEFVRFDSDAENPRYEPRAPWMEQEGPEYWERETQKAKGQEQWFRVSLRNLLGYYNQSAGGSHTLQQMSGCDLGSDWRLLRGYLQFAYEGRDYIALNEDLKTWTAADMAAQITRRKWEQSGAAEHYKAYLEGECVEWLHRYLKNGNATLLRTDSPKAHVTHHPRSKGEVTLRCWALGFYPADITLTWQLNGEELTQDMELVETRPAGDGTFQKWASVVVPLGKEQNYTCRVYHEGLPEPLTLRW
compound,measurement,setting,value
CC[C@H](C)[C@H](NC(=O)CNC(=O)[C@@H](NC(=O)[C@H](Cc1ccccc1)NC(=O)[C@H](CCCCN)NC(=O)[C@H](CO)NC(=O)[C@H](CC(N)=O)NC(=O)[C@H](C)NC(=O)[C@H](CCCCN)NC(=O)[C@@H](NC(=O)[C@H](Cc1ccc(O)cc1)NC(=O)[C@@H](N)CCC(N)=O)[C@@H](C)CC)[C@@H](C)CC)C(=O)N[C@H](C(=O)N[C@@H](CCC(=O)O)C(=O)O)[C@@H](C)O [TT830-843],Kd,,344 ± 60 nM
same,kon,"pH 7.2, read-out: association rate constant ka",900000 M⁻¹ s⁻¹
same,koff,"pH 7.2, read-out: dissociation rate constant kd",0.31 ± 0.02 s⁻¹
